Assay results published in PMC4295349, “Synthetic Antimicrobial Peptides Exhibit Two Different Binding Mechanisms to the Lipopolysaccharides Isolated from Pseudomonas aeruginosa and Klebsiella pneumoniae” (International Journal of Medicinal Chemistry, 2014).
Like-named read-outs stand apart in the source and are kept apart here. Where a SMILES comes first, the peptide text is derived from it. [ ]: non-standard residue; d: D form. ξ: configuration not given here. Oic = O=C(O)[C@@H]1C[C@@H]2CCCC[C@@H]2N1; Oic(3aξ,7aξ) = O=C(O)[C@@H]1CC2CCCCC2N1; Tic = O=C(O)[C@@H]1Cc2ccccc2CN1; βAla = NCCC(=O)O

Tests used:
P. aeruginosa PAO1 [1] = format: cell-based, Pseudomonas aeruginosa
Excerpt: Table 3 In vitro minimum inhibitory concentration (MIC) and minimum bactericide concentration (MBC) activity against K. pneumonia and P. aeruginosa. | column: P. aeruginosa PAO1 / MBC (µg/mL)/(μM)

[2] = test system: LPS isolated from P. aeruginosa; test: 1H NMR of LPS on addition of AMP; format: binding, Pseudomonas aeruginosa; details: 1.0 mg/mL LPS + 0.1 mg AMP in 600 μL 150 mM perdeuterated sodium acetate buffer pH 5.64 in D2O, 298 K
Procedure: (§1) All ^1H experiments were conducted at 298 K on a Bruker Avance III 400 MHz NMR spectrometer equipped with a 5 mm direct observe Z-gradient broad-band probe. The spectral width was 4,000 Hz, 256 FIDs were collected per experiment. Data were processed using exponential multiplication with a line-broadening function of 5 Hz. Samples contained 1.0 mg/mL of the LPS in the presence of 0.1 mg of the AMP in 600 μL of a 150 mM perdeuterated sodium acetate buffer at a pH of 5.64 in D2O.

[3] = test system: LPS isolated from K. pneumoniae; test: 1H NMR of LPS on addition of AMP; format: binding, Klebsiella pneumoniae; details: 1.0 mg/mL LPS + 0.1 mg AMP in 600 μL 150 mM perdeuterated sodium acetate buffer pH 5.64 in D2O, 298 K
Procedure: as §1

K. pneumoniae BAMC 07-18 [4] = details: for in vitro inhibitory activity: against K. pneumoniae
P. aeruginosa PAO1 [5] = details: for in vitro inhibitory activity: against P. aeruginosa
K. pneumoniae BAMC 07-18 [6] = format: cell-based, Klebsiella pneumoniae
Excerpt: Table 3 In vitro minimum inhibitory concentration (MIC) and minimum bactericide concentration (MBC) activity against K. pneumonia and P. aeruginosa. | column: K. pneumoniae BAMC 07-18 / MBC (μg/mL)/(μM)

[7] = format: physicochemical
Procedure: Peptide solutions were prepared by dissolving approximately 2 mg of AMPs 70, 74, 75, 79, or 80 in 1.0 mL of phosphate buffer. […] For the LPS liposome studies 350 μL of stock LPS solution was mixed with 50 μL of stock peptide solution. CD spectroscopy is a sensitive technique, so it is commonly used to monitor conformational changes in peptides and proteins. […] All CD spectra were obtained by acquiring 8 scans using a 0.1 mm cylindrical quartz cell with a spectral range of 260 to 195 nm (at wavelengths below 195 nm the HTV exceeded 400, and therefore data collection was terminated at 195 nm) and a scanning rate of 20 nm/min. Acquisition parameters were bandwidth 1 nm, data pitch 0.2 nm, response time 2.0 s, and 5 mdeg sensitivity. Spectra were collected at room temperature (298 K). Contributions from LPS were eliminated by subtracting from the corresponding AMP-LPS solutions. All analyses of CD spectra were conducted after smoothing with a means-movement function.

[8] = P. aeruginosa PAO1, light face value
[9] = K. pneumoniae BAMC 07-18, light face value

Compound	MBC (P. aeruginosa PAO1 [1]; [8]) [µg/mL]	MBC (P. aeruginosa PAO1 [1]; PAO1)	change of LPS 1H NMR resonances between 1.5 and 0.5 ppm (lipid A side chains) [2]	change of LPS 1H NMR resonances in the region of 1.8 to 0.7 ppm (lipid A) [3]	in vitro inhibitory activity (K. pneumoniae BAMC 07-18 [4]) [µg/mL]	MIC (P. aeruginosa PAO1 [5]; [8]) [µg/mL]	MIC (P. aeruginosa PAO1 [5]; PAO1)	in vitro inhibitory activity (P. aeruginosa PAO1 [5]) [µg/mL]	MBC (K. pneumoniae BAMC 07-18 [6]; BAMC 07-18)	MBC (K. pneumoniae BAMC 07-18 [6]; [9]) [µg/mL]	solubility in phosphate buffer at approximately 2 mg in 1.0 mL [7]	MIC (K. pneumoniae BAMC 07-18 [4]; BAMC 07-18)	MIC (K. pneumoniae BAMC 07-18 [4]; [9]) [µg/mL]
CC(C)C[C@H](NC(=O)[C@@H](N)CCCCN)C(=O)N1Cc2ccccc2C[C@H]1C(=O)N1[C@H](C(=O)N[C@@H](CCCCN)C(=O)N2Cc3ccccc3C[C@H]2C(=O)N2[C@H](C(=O)NCC(=O)N[C@@H](Cc3ccccc3)C(=O)N3Cc4ccccc4C[C@H]3C(=O)N3[C@H](C(=O)N[C@@H](CCCCN)C(=O)N4Cc5ccccc5C[C@H]4C(=O)N4[C@H](C(=O)NCC(=O)N[C@@H](Cc5ccccc5)C(=O)N5Cc6ccccc6C[C@H]5C(=O)N5[C@H](C(=O)N[C@@H](CCCCN)C(=O)N6Cc7ccccc7C[C@H]6C(=O)N6[C@H](C(=O)N[C@@H](CCCCN)C(=O)N[C@@H](CCCCN)C(=O)N[C@@H](CCCCN)C(=O)N[C@@H](CCCCN)C(N)=O)C[C@@H]7CCCC[C@@H]76)C[C@@H]6CCCC[C@@H]65)C[C@@H]5CCCC[C@@H]54)C[C@@H]4CCCC[C@@H]43)C[C@@H]3CCCC[C@@H]32)C[C@@H]2CCCC[C@@H]21 [AMP 75] (H-KL[Tic][Oic]K[Tic][Oic]GF[Tic][Oic]K[Tic][Oic]GF[Tic][Oic]K[Tic][Oic]KKKK-NH2)	50	14.6 µM	significant reduction in the peak heights	reduction in the signal intensity	≥ 100	50	14.6 µM	50	–	–	–	–	–
CC(C)C[C@H](NC(=O)[C@@H](N)CCCCN)C(=O)N1Cc2ccccc2C[C@H]1C(=O)N1C2CCCCC2C[C@H]1C(=O)NCC(=O)N[C@@H](CCCCN)C(=O)N1Cc2ccccc2C[C@H]1C(=O)N1C2CCCCC2C[C@H]1C(=O)NCC(=O)N[C@@H](Cc1ccccc1)C(=O)N1Cc2ccccc2C[C@H]1C(=O)N1C2CCCCC2C[C@H]1C(=O)NCC(=O)N[C@@H](CCCCN)C(=O)N1Cc2ccccc2C[C@H]1C(=O)N1C2CCCCC2C[C@H]1C(=O)NCC(=O)N[C@@H](Cc1ccccc1)C(=O)N1Cc2ccccc2C[C@H]1C(=O)N1C2CCCCC2C[C@H]1C(=O)NCC(=O)N[C@@H](CCCCN)C(=O)N1Cc2ccccc2C[C@H]1C(=O)N1C2CCCCC2C[C@H]1C(=O)N[C@@H](CCCCN)C(=O)N[C@@H](CCCCN)C(=O)N[C@@H](CCCCN)C(=O)N[C@@H](CCCCN)C(N)=O (stereo partly drawn) [AMP 76] (H-KL[Tic][Oic(3aξ,7aξ)]GK[Tic][Oic(3aξ,7aξ)]GF[Tic][Oic(3aξ,7aξ)]GK[Tic][Oic(3aξ,7aξ)]GF[Tic][Oic(3aξ,7aξ)]GK[Tic][Oic(3aξ,7aξ)]KKKK-NH2)	50	13.9 µM	–	–	–	50	13.9 µM	50	13.9 µM	50	solubility issues	13.9 µM	50
CC(=O)N[C@@H](CCCCN)C(=O)N[C@@H](CC(C)C)C(=O)N1Cc2ccccc2C[C@H]1C(=O)N1[C@H](C(=O)N[C@@H](CCCCN)C(=O)N2Cc3ccccc3C[C@H]2C(=O)N2[C@H](C(=O)N[C@@H](Cc3ccccc3)C(=O)N3Cc4ccccc4C[C@H]3C(=O)N3[C@H](C(=O)N[C@@H](CCCCN)C(=O)N4Cc5ccccc5C[C@H]4C(=O)N4[C@H](C(=O)N[C@@H](Cc5ccccc5)C(=O)N5Cc6ccccc6C[C@H]5C(=O)N5[C@H](C(=O)N[C@@H](CCCCN)C(=O)N6Cc7ccccc7C[C@H]6C(=O)N6[C@H](C(=O)N[C@@H](CCCCN)C(=O)N[C@@H](CCCCN)C(=O)N[C@@H](CCCCN)C(=O)N[C@@H](CCCCN)C(N)=O)C[C@@H]7CCCC[C@@H]76)C[C@@H]6CCCC[C@@H]65)C[C@@H]5CCCC[C@@H]54)C[C@@H]4CCCC[C@@H]43)C[C@@H]3CCCC[C@@H]32)C[C@@H]2CCCC[C@@H]21 [AMP 70] (Ac-KL[Tic][Oic]K[Tic][Oic]F[Tic][Oic]K[Tic][Oic]F[Tic][Oic]K[Tic][Oic]KKKK-NH2)	–	>100 µg/mL	significant reduction in the peak heights	reduction in the signal intensity	≥ 100	–	>100 µg/mL	≥ 100	>100 µg/mL	–	–	>100 µg/mL	–
CC(C)C[C@H](NC(=O)[C@@H](N)CCCCN)C(=O)N1Cc2ccccc2C[C@H]1C(=O)N1C2CCCCC2C[C@H]1C(=O)N[C@@H](CCCCN)C(=O)NCC(=O)N1Cc2ccccc2C[C@H]1C(=O)N1C2CCCCC2C[C@H]1C(=O)N[C@@H](Cc1ccccc1)C(=O)NCC(=O)N1Cc2ccccc2C[C@H]1C(=O)N1C2CCCCC2C[C@H]1C(=O)N[C@@H](CCCCN)C(=O)NCC(=O)N1Cc2ccccc2C[C@H]1C(=O)N1C2CCCCC2C[C@H]1C(=O)N[C@@H](Cc1ccccc1)C(=O)NCC(=O)N1Cc2ccccc2C[C@H]1C(=O)N1C2CCCCC2C[C@H]1C(=O)N[C@@H](CCCCN)C(=O)NCC(=O)N1Cc2ccccc2C[C@H]1C(=O)N1C2CCCCC2C[C@H]1C(=O)N[C@@H](CCCCN)C(=O)N[C@@H](CCCCN)C(=O)N[C@@H](CCCCN)C(=O)N[C@@H](CCCCN)C(N)=O (stereo partly drawn) [AMP 79] (H-KL[Tic][Oic(3aξ,7aξ)]KG[Tic][Oic(3aξ,7aξ)]FG[Tic][Oic(3aξ,7aξ)]KG[Tic][Oic(3aξ,7aξ)]FG[Tic][Oic(3aξ,7aξ)]KG[Tic][Oic(3aξ,7aξ)]KKKK-NH2)	50	13.9 µM	significant reduction in the peak heights	reduction in the signal intensity	50	50	13.9 µM	50	13.9 µM	50	–	13.9 µM	50
H2N-KL-Tic-Oic-GK-Tic-Oic-F-Tic-Oic-GK-Tic-Oic-F-Tic-Oic-GK-Tic-Oic-KKKK-CONH2 [AMP 74]	–	–	significant reduction in the peak heights	reduction in the signal intensity	≥ 100	–	–	≥ 100	–	–	–	–	–
CC(C)C[C@H](NC(=O)[C@@H](N)CCCCN)C(=O)N1Cc2ccccc2C[C@H]1C(=O)N1C2CCCCC2C[C@H]1C(=O)NCC(=O)N[C@@H](CCCCN)C(=O)N1Cc2ccccc2C[C@H]1C(=O)N1C2CCCCC2C[C@H]1C(=O)NCCC(=O)N[C@@H](Cc1ccccc1)C(=O)N1Cc2ccccc2C[C@H]1C(=O)N1C2CCCCC2C[C@H]1C(=O)NCC(=O)N[C@@H](CCCCN)C(=O)N1Cc2ccccc2C[C@H]1C(=O)N1C2CCCCC2C[C@H]1C(=O)NCCC(=O)N[C@@H](Cc1ccccc1)C(=O)N1Cc2ccccc2C[C@H]1C(=O)N1C2CCCCC2C[C@H]1C(=O)NCC(=O)N[C@@H](CCCCN)C(=O)N1Cc2ccccc2C[C@H]1C(=O)N1C2CCCCC2C[C@H]1C(=O)N[C@@H](CCCCN)C(=O)N[C@@H](CCCCN)C(=O)N[C@@H](CCCCN)C(=O)N[C@@H](CCCCN)C(N)=O (stereo partly drawn) [AMP 80] (H-KL[Tic][Oic(3aξ,7aξ)]GK[Tic][Oic(3aξ,7aξ)][βAla]F[Tic][Oic(3aξ,7aξ)]GK[Tic][Oic(3aξ,7aξ)][βAla]F[Tic][Oic(3aξ,7aξ)]GK[Tic][Oic(3aξ,7aξ)]KKKK-NH2)	50	13.8 µM	significant reduction in the peak heights	reduction in the signal intensity	50	25	6.9 µM	50	13.8 µM	50	–	13.8 µM	50
